Values of other authors as cited in paper PMC9796293 (British Journal of Clinical Pharmacology, 2022).

Test system: monocytes

monocytopaenia (clinical ref 20): not observed
Structure (SMILES): O=C(CCCCCCC(=O)Nc1ccc(CN[C@H](C(=O)OC2CCCC2)c2ccccc2)cc1)NO [tefinostat]
lowest dose that induced monocyte histone acetylation (Phase I study in cancer patients ref 20): 40 mg
